Source: ChEMBL document CHEMBL1126097 (J Med Chem, 1992)
pEC50, pIC50: −log10 of the molar value.

Tests used:
[1] = molecular target: T1, 5-hydroxytryptamine receptor 2C (Rattus norvegicus, UniProt P08909); experiment: Binding affinity against 5-hydroxytryptamine 1C receptor
T1 sequence (P08909 whole entry): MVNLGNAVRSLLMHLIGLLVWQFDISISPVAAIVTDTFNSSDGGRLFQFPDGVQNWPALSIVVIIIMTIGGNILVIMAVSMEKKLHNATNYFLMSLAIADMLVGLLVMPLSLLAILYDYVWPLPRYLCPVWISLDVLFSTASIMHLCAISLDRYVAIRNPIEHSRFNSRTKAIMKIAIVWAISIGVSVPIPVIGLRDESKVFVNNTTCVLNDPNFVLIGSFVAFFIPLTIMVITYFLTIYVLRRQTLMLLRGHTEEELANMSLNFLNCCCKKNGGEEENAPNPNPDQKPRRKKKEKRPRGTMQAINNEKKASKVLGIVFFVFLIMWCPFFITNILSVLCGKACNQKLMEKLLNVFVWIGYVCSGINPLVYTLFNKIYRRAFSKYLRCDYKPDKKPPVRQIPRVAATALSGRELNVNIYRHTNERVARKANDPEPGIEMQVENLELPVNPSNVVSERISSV

[2] = molecular target: T2, Serotonin 2 (5-HT2) receptor (Rattus norvegicus, UniProt P30994+P08909+P14842); experiment: Binding affinity against 5-hydroxytryptamine 2 receptor using [125I]DOI as radioligand.; type: protein assay
[3] = molecular target: T2, Serotonin 2 (5-HT2) receptor; experiment: Binding affinity against 5-hydroxytryptamine 2 receptor using [3H]ket as radioligand.; type: protein assay
[4] = molecular target: T3, 5-hydroxytryptamine receptor 1D (Cavia porcellus, UniProt Q60484); experiment: Binding affinity against 5-hydroxytryptamine 1D receptor
T3 sequence (Q60484 whole entry): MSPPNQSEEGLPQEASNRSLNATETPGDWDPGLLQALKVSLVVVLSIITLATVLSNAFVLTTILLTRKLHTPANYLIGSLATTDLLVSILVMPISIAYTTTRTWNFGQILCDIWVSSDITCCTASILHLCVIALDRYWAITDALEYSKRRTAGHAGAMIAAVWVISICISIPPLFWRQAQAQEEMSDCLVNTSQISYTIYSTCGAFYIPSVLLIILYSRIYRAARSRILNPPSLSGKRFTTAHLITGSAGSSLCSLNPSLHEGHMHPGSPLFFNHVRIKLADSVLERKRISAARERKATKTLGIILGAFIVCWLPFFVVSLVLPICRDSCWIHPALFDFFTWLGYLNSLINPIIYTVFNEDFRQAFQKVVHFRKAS

[5] = molecular target: 5-hydroxytryptamine receptor 1B (Homo sapiens, UniProt P28222); experiment: Binding affinity against 5-hydroxytryptamine 1B receptor
Sequence of 5-hydroxytryptamine receptor 1B (P28222 whole entry): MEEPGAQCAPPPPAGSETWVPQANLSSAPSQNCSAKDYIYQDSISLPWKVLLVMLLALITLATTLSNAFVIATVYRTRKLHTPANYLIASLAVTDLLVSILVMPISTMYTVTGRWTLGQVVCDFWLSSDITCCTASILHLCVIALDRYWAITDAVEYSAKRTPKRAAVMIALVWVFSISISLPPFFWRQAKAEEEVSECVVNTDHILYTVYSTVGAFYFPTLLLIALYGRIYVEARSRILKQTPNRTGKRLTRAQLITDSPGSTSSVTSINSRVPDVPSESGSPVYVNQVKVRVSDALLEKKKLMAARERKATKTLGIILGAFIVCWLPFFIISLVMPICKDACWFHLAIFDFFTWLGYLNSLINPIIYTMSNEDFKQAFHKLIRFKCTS

[6] = molecular target: T3, 5-hydroxytryptamine receptor 1D; experiment: Effect on forskolin stimulated adenylate cyclase activity at 5-HT1D receptor of guinea pig substantia nigra.; type: functional

Row | SMILES | pIC50 [1] | IC50 [2] | IC50 [3] | pIC50 [4] | pIC50 [5] | pEC50 [6]
1 | COc1ccc2[nH]cc(C[C@@H]3CCCN3C)c2c1 | 5.92 | 680 nM | > 8400 nM | 6.38 | 5.24 | 
2 | COc1ccc2[nH]cc(C[C@H]3CCCN3C)c2c1 | 7.48 | 17 nM | 730 nM | 7.62 | 6.08 | 7.37
3 | COc1ccc2[nH]cc(CCN(C)C)c2c1 [MEBUFOTENIN] |  |  |  | 7.31 |  | 
4 | NCCc1c[nH]c2ccc(O)cc12 [SEROTONIN] |  |  |  | 8.52 |  | 8.28
